# Biological target: MMP-9 (Homo sapiens, UniProt P14780)
# Assay: MMP-9 inhibition (inhibitory profile)
# Format: biochemical
# Conditions: Table 2
# Experimental: The compounds were measured for MMP-1, 2, 9, 13 to determine their inhibitory profile. Efficiency Index amplifies the two major required effects, selectivity against MMP-1 and the inhibitory activity.
# Chain of MMP-9 (P14780 94-707, species assumed): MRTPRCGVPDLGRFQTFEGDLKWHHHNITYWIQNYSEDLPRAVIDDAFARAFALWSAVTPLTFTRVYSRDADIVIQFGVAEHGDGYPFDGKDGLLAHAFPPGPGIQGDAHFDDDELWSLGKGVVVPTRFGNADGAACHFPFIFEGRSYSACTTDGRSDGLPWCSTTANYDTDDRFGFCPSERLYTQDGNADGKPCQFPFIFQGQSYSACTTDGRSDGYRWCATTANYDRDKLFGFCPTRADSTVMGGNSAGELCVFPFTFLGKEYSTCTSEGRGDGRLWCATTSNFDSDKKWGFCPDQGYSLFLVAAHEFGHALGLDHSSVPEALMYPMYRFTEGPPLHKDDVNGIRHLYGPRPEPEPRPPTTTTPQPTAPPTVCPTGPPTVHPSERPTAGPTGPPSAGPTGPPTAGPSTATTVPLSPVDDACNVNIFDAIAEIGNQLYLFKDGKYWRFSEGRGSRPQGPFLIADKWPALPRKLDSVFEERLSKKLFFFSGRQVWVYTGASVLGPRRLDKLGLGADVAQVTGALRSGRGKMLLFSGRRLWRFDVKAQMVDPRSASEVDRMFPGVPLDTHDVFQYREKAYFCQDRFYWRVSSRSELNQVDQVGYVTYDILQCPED
smiles,measurement,value
O=C(O)c1c[nH]c(CN(Cc2ccc(F)cc2)Cc2ccc(OCc3ccccc3)cc2)n1 [MMPI-1154],IC50,13 µM
